Data: US10702475B2, “Liposome containing compositions and their use in personal care and food products” (priority 2017, dated 2020)

Assay: Evaluation of polyglyceryl ester surfactants for structuring a liposome
Type: physicochemical
Conditions: class given by column head
Description: A series of polyglyceryl ester surfactants were evaluated to identify those capable of structuring a liposome. These reveal that liposome formation requires from 8 to 12 units of glycerol and a di-ester of C14-C18 fatty acid to establish a liposomal structure.

Polyglyceryl-10 Dioleate
structure formed by the surfactant (O/W emulsion, liposome or W/O emulsion): forms liposomes

Polyglyceryl-10 Mono/Dioleate
structure formed by the surfactant (O/W emulsion, liposome or W/O emulsion): forms O/W emulsions
